The numbers were not newly measured in patent publication US6613768B1, “Treatment of female arousal disorder” (Lilly ICOS LLC, priority 1999, dated 2003), which cites them from elsewhere.

SMILES strings stand for the structures. Counter-ions that a name gives are not always drawn.

In this data set the test system is postmenopausal women with sexual dysfunction.

For `CCCc1nn(C)c2c(=O)[nH]c(-c3cc(S(=O)(=O)N4CCN(C)CC4)ccc3OCC)nc12` [sildenafil, Sildenafil citrate], the “women with clitoral discomfort/hypersensitivity who withdrew from the study” value (of the 7 women affected) is listed as 3. Further, under “thirty-three postmenopausal women”, the “clitoral discomfort and hypersensitivity, number of women” value is listed as 7 woman.
